# Measurements taken from ChEMBL document CHEMBL1146703, “Mannopeptimycin esters and carbonates, potent antibiotic agents against drug-resistant bacteria” (2004).
# Tests used:
# Escherichia coli = assay: Antibacterial activity against Escherichia coli at </=64 ug/mL; No activity; type: functional, organism-based
# Enterococcus faecalis [1] = assay: Antibacterial activity against Enterococcus faecalis; Range is 8-16; type: functional
# Staphylococcus aureus [2] = assay: Antibacterial activity against Staphylococcus aureus; Range is 2-4; type: functional
# Staphylococcus aureus [3] = assay: Antibacterial activity against Staphylococcus aureus; Range is 2-8; type: functional
# Enterococcus faecalis [4] = assay: Antibacterial activity against Enterococcus faecalis; Range is 64->64; type: functional
# Staphylococcus aureus [5] = assay: Antibacterial activity against Staphylococcus aureus; Range is 8-16; type: functional
# Enterococcus faecalis [6] = assay: Antibacterial activity against Enterococcus faecalis; Range is 4-32; type: functional
# Staphylococcus aureus [7] = assay: Antibacterial activity against Staphylococcus aureus; type: functional
# Enterococcus faecalis [8] = assay: Antibacterial activity against Enterococcus faecalis; Range is 16-64; type: functional
# Staphylococcus aureus [9] = assay: Antibacterial activity against Staphylococcus aureus; Range is 4-8; type: functional
smiles,measurement,setting,value
C[C@@H](c1ccccc1)[C@@H]1NC(=O)CNC(=O)[C@H](CO)NC(=O)[C@@H]([C@@H](O)[C@@H]2CNC(N)N2[C@H]2O[C@H](CO)[C@@H](O)[C@H](O)[C@@H]2O)NC(=O)[C@H]([C@@H](O)[C@@H]2CNC(N)N2)NC(=O)[C@@H](Cc2ccc(O[C@H]3O[C@H](CO)[C@@H](O[C@H]4O[C@H](COC(=O)Cc5ccccc5)[C@@H](O)[C@H](O)[C@@H]4O)[C@H](O)[C@@H]3O)cc2)NC1=O (stereo not given in full),MIC,Escherichia coli,No activity
same,MIC,Enterococcus faecalis [1],16 µg/mL
same,MIC,Staphylococcus aureus [2],4 µg/mL
C[C@@H](c1ccccc1)[C@@H]1NC(=O)CNC(=O)[C@H](CO)NC(=O)[C@@H]([C@@H](O)[C@@H]2CNC(N)N2[C@H]2O[C@H](CO)[C@@H](O)[C@H](O)[C@@H]2O)NC(=O)[C@H]([C@@H](O)[C@@H]2CNC(N)N2)NC(=O)[C@@H](Cc2ccc(O[C@H]3O[C@H](CO)[C@@H](O[C@H]4O[C@H](COC(=O)OCc5ccccc5)[C@@H](O)[C@H](O)[C@@H]4O)[C@H](O)[C@@H]3O)cc2)NC1=O (stereo not given in full),MIC,Escherichia coli,No activity
same,MIC,Enterococcus faecalis [1],16 µg/mL
same,MIC,Staphylococcus aureus [3],8 µg/mL
C[C@@H](c1ccccc1)[C@@H]1NC(=O)CNC(=O)[C@H](CO)NC(=O)[C@@H]([C@@H](O)[C@@H]2CNC(N)N2[C@H]2O[C@H](CO)[C@@H](O)[C@H](O)[C@@H]2O)NC(=O)[C@H]([C@@H](O)[C@@H]2CNC(N)N2)NC(=O)[C@@H](Cc2ccc(O[C@H]3O[C@H](COC(=O)Cc4ccccc4)[C@@H](O[C@H]4O[C@H](CO)[C@@H](O)[C@H](O)[C@@H]4O)[C@H](O)[C@@H]3O)cc2)NC1=O (stereo not given in full),MIC,Escherichia coli,No activity
same,MIC,Enterococcus faecalis [4],64 µg/mL
same,MIC,Staphylococcus aureus [5],16 µg/mL
CCCC(CCC)C(=O)OC[C@H]1O[C@H](Oc2ccc(C[C@H]3NC(=O)[C@H]([C@@H](C)c4ccccc4)NC(=O)CNC(=O)[C@H](CO)NC(=O)[C@@H]([C@@H](O)[C@@H]4CNC(N)N4[C@H]4O[C@H](CO)[C@@H](O)[C@H](O)[C@@H]4O)NC(=O)[C@H]([C@@H](O)[C@@H]4CNC(N)N4)NC3=O)cc2)[C@@H](O)[C@@H](O)[C@@H]1O[C@H]1O[C@H](CO)[C@@H](O)[C@H](O)[C@@H]1O (stereo not given in full),MIC,Enterococcus faecalis [6],32 µg/mL
same,MIC,Escherichia coli,No activity
same,MIC,Staphylococcus aureus [7],4 µg/mL
C[C@@H](c1ccccc1)[C@@H]1NC(=O)CNC(=O)[C@H](CO)NC(=O)[C@@H]([C@@H](O)[C@@H]2CNC(N)N2[C@H]2O[C@H](CO)[C@@H](O)[C@H](O)[C@@H]2O)NC(=O)[C@H]([C@@H](O)[C@@H]2CNC(N)N2)NC(=O)[C@@H](Cc2ccc(O[C@H]3O[C@H](COC(=O)OCc4ccccc4)[C@@H](O[C@H]4O[C@H](CO)[C@@H](O)[C@H](O)[C@@H]4O)[C@H](O)[C@@H]3O)cc2)NC1=O (stereo not given in full),MIC,Enterococcus faecalis [8],64 µg/mL
same,MIC,Escherichia coli,No activity
same,MIC,Staphylococcus aureus [9],8 µg/mL
